How the values were obtained:
HCT116 cells = assay: CCK-8 anti-proliferation assay, HCT116; assay type: cell-based, human; settings: CCK-8, 48 h, mean ± SD, three independent experiments
Experimental: (§1) Tumor cell anti-proliferation activities were determined by cell counting kit-8 (CCK-8) assay.
(§2) MCF-7, A375, and HeLa cells were cultured in DMEM, HCT116 cells were cultured in McCoy's 5A medium, and DU145 and CT26 were cultured in RPMI 1640 with 10% FBS, 1% penicillin-streptomycin solution (10,000 U/mL penicillin and 10,000 μg/mL streptomycin) at 37 °C under 5% CO2. The cells were seeded in 96-well plates (4 × 10^3 cells/well) overnight and then treated with various concentrations (1–50 μmol/L) of the compound. After 48 h, the cell viability was measured by CCK-8 assay. The absorbance of each well was measured using a microplate reader (Multiskan FC, Thermo Fisher Scientific, Massachusetts, USA) at 450 nm wavelength. Assays were performed in triplicate. Compound concentrations that inhibited cell growth by 50% (IC50) were calculated from the dose–response curves of each cell line. Data are mean ± SD values from three independent experiments.

HeLa cells = assay: CCK-8 anti-proliferation assay, HeLa; assay type: cell-based, human; settings: CCK-8, 48 h, mean ± SD, three independent experiments
Experimental: as §1, §2

Row | SMILES | IC50 (HCT116 cells; Homo sapiens, HCT-116, 48 h) [µM] | IC50 (HeLa cells; Homo sapiens, HeLa, 48 h) [µM] | IC50 (HCT116 cells) [µM] | IC50 (HeLa cells) [µM]
1 | CCOC(=O)[C@]1(n2cnc3c(SC)ncnc32)CSC[C@H]1O (relative stereo) [21a] | 44.1 ± 1.36 | 31 ± 2.18 |  | 
2 | CCOC(=O)[C@]1(n2cnc3c(SC)ncnc32)CSC[C@@H]1O (relative stereo) [21b] | 32.7 ± 1.17 | 8.83 ± 0.78 |  | 
3 | CCOC(=O)[C@]1(n2cnc3c(SCC)ncnc32)CSC[C@H]1O (relative stereo) [22a] | 7.56 ± 1.09 | 5.46 ± 1.02 |  | 
4 | CCOC(=O)[C@]1(n2cnc3c(SCC)ncnc32)CSC[C@@H]1O (relative stereo) [22b] | 2.42 ± 0.82 | 3.27 ± 0.82 |  | 
5 | CCOC(=O)[C@]1(n2cnc3c(SC(C)C)ncnc32)CSC[C@H]1O (relative stereo) [23a] | 4.85 ± 1.02 | 8.45 ± 1.23 |  | 
6 | CCOC(=O)[C@]1(n2cnc3c(SC(C)C)ncnc32)CSC[C@@H]1O (relative stereo) [23b] | 4.01 ± 0.88 | 3.43 ± 0.76 |  | 
7 | C#CCSc1ncnc2c1ncn2[C@@]1(C(=O)OCC)CSC[C@H]1O (relative stereo) [24a] | 1.81 ± 0.12 | 15.9 ± 2.12 |  | 
8 | C#CCSc1ncnc2c1ncn2[C@@]1(C(=O)OCC)CSC[C@@H]1O (relative stereo) [24b] | 1.66 ± 0.13 | 14.9 ± 2.01 |  | 
9 | CCCCSc1ncnc2c1ncn2[C@@]1(C(=O)OCC)CSC[C@H]1O (relative stereo) [25a] | 9.07 ± 0.49 | 9.89 ± 1.02 |  | 
10 | CCCCSc1ncnc2c1ncn2[C@@]1(C(=O)OCC)CSC[C@@H]1O (relative stereo) [25b] | 2.84 ± 0.27 | 6.32 ± 0.82 |  | 
11 | CCCCCSc1ncnc2c1ncn2[C@@]1(C(=O)OCC)CSC[C@H]1O (relative stereo) [26a] | 11.9 ± 1.32 | 6.07 ± 0.78 |  | 
12 | CCCCCSc1ncnc2c1ncn2[C@@]1(C(=O)OCC)CSC[C@@H]1O (relative stereo) [26b] | 11.8 ± 1.27 | > 50 |  | 
13 | CCOC(=O)[C@]1(n2cnc3c(SCc4ccccc4)ncnc32)CSC[C@H]1O (relative stereo) [27a] | 14.4 ± 1.64 | 22.3 ± 2.09 |  | 
14 | CCOC(=O)[C@]1(n2cnc3c(SCc4ccccc4)ncnc32)CSC[C@@H]1O (relative stereo) [27b] | 5.65 ± 1.4 | 23.9 ± 2.38 |  | 
15 | CCOC(=O)[C@]1(n2cnc3c(Sc4cccc(F)c4)ncnc32)CSC[C@H]1O (relative stereo) [28a] | 12.8 ± 1.08 | 9.47 ± 1.02 |  | 
16 | CCOC(=O)[C@]1(n2cnc3c(Sc4cccc(F)c4)ncnc32)CSC[C@@H]1O (relative stereo) [28b] | 15.7 ± 2 | 25.8 ± 1.35 |  | 
17 | CCOC(=O)[C@]1(n2cnc3c(Sc4ccc(C(C)(C)C)cc4)ncnc32)CSC[C@H]1O (relative stereo) [29a] | 7.6 ± 1.22 | 21.2 ± 2.37 |  | 
18 | CCOC(=O)[C@]1(n2cnc3c(Sc4ccc(C(C)(C)C)cc4)ncnc32)CSC[C@@H]1O (relative stereo) [29b] | 6.78 ± 1.22 | 15.1 ± 2.08 |  | 
19 | CCOC(=O)[C@]1(n2cnc3c(SCCCF)ncnc32)CSC[C@H]1O (relative stereo) [30a] | 19.1 ± 1.37 | 10.8 ± 1.07 |  | 
20 | CCOC(=O)[C@]1(n2cnc3c(SCCCF)ncnc32)CSC[C@@H]1O (relative stereo) [30b] | 10.9 ± 1.01 | 12.1 ± 1.12 |  | 
21 | CCOC(=O)[C@]1(n2cnc3c(SCCCCl)ncnc32)CSC[C@H]1O (relative stereo) [31a] | > 50 | > 50 |  | 
22 | CCOC(=O)[C@]1(n2cnc3c(SCCCCl)ncnc32)CSC[C@@H]1O (relative stereo) [31b] | > 50 | > 50 |  | 
23 | CCOC(=O)C1(n2cnc3c(Cl)ncnc32)CSCC1O (single isomer, unassigned) [2a] |  |  | 48.9 ± 2.12 | > 50

Row | SMILES | IC50 (HCT116 cells; Homo sapiens, HCT-116, 48 h) [µM] | IC50 (HeLa cells; Homo sapiens, HeLa, 48 h) [µM] | IC50 (HCT116 cells) [µM] | IC50 (HeLa cells) [µM]
24 | CCOC(=O)C1(n2cnc3c(Cl)ncnc32)CSCC1O (single isomer, unassigned) [2b] |  |  | > 50 | > 50
25 | CCOC(=O)C1(n2cnc3c(Br)ncnc32)CSCC1O (single isomer, unassigned) [3a] |  |  | 8.97 ± 1.03 | > 50
26 | CCOC(=O)C1(n2cnc3c(Br)ncnc32)CSCC1O (single isomer, unassigned) [3b] |  |  | > 50 | > 50
27 | CCOC(=O)C1(n2cnc3c(N(C)C)ncnc32)CSCC1O (single isomer, unassigned) [4a] |  |  | 17.4 ± 1.01 | 9.81 ± 1.12
28 | CCOC(=O)C1(n2cnc3c(N(C)C)ncnc32)CSCC1O (single isomer, unassigned) [4b] |  |  | 49.5 ± 2.02 | 12 ± 1.57
29 | CCOC(=O)C1(n2cnc3c(N4CCOCC4)ncnc32)CSCC1O (single isomer, unassigned) [9a] |  |  | > 50 | 10.8 ± 1.03
30 | CCOC(=O)C1(n2cnc3c(N4CCOCC4)ncnc32)CSCC1O (single isomer, unassigned) [9b] |  |  | 17.1 ± 1.12 | 10.2 ± 1.05
31 | CCOC(=O)C1(n2cnc3c(N4CCSCC4)ncnc32)CSCC1O (single isomer, unassigned) [10a] |  |  | 18.8 ± 1.04 | 45.8 ± 2.12
32 | CCOC(=O)C1(n2cnc3c(N4CCSCC4)ncnc32)CSCC1O (single isomer, unassigned) [10b] |  |  | 10.1 ± 1.01 | 10.2 ± 1.93
33 | CCOC(=O)C1(n2cnc3c(N4CCC(C)CC4)ncnc32)CSCC1O (single isomer, unassigned) [11a] |  |  | 1.44 ± 0.13 | 21.8 ± 2.42
34 | CCOC(=O)C1(n2cnc3c(N4CCC(C)CC4)ncnc32)CSCC1O (single isomer, unassigned) [11b] |  |  | 0.91 ± 0.27 | 23.4 ± 2.76
35 | CCOC(=O)C1(n2cnc3c(N4CCC(F)CC4)ncnc32)CSCC1O (single isomer, unassigned) [12a] |  |  | 1.64 ± 0.27 | 44.5 ± 3.12
36 | CCOC(=O)C1(n2cnc3c(N4CCC(F)CC4)ncnc32)CSCC1O (single isomer, unassigned) [12b] |  |  | 3.92 ± 0.87 | 40.9 ± 3.08
37 | CCOC(=O)C1(n2cnc3c(N4CCC(C(F)(F)F)CC4)ncnc32)CSCC1O (single isomer, unassigned) [13a] |  |  | 5.89 ± 1.02 | 42 ± 2.12
38 | CCOC(=O)C1(n2cnc3c(N4CCC(C(F)(F)F)CC4)ncnc32)CSCC1O (single isomer, unassigned) [13b] |  |  | 2.37 ± 0.36 | 38.7 ± 2.09
39 | CCOC(=O)C1(n2cnc3c(N4CCC(Cl)CC4)ncnc32)CSCC1O (single isomer, unassigned) [14a] |  |  | 15 ± 2.16 | 12.1 ± 1.32
40 | CCOC(=O)C1(n2cnc3c(N4CCC(Cl)CC4)ncnc32)CSCC1O (single isomer, unassigned) [14b] |  |  | 18 ± 2.37 | 14.3 ± 1.58
41 | CCOC(=O)C1(n2cnc3c(N4CCC(N5CCOCC5)CC4)ncnc32)CSCC1O (single isomer, unassigned) [15a] |  |  | 43.9 ± 2.11 | 13.7 ± 1.33
42 | CCOC(=O)C1(n2cnc3c(N4CCC(N5CCOCC5)CC4)ncnc32)CSCC1O (single isomer, unassigned) [15b] |  |  | 32 ± 2.09 | 7.71 ± 1.02
43 | CCOC(=O)C1(n2cnc3c(N4CCC(Cc5ccccc5F)CC4)ncnc32)CSCC1O (single isomer, unassigned) [17a] |  |  | 4.4 ± 1.02 | 17 ± 1.03
44 | CCOC(=O)C1(n2cnc3c(N4CCC(Cc5ccccc5F)CC4)ncnc32)CSCC1O (single isomer, unassigned) [17b] |  |  | 4.49 ± 1.13 | 17 ± 1.12
45 | CCOC(=O)C1(n2cnc3c(N4CCCCCC4)ncnc32)CSCC1O (single isomer, unassigned) [19a] |  |  | 1.19 ± 0.09 | 22.8 ± 1.22
46 | CCOC(=O)C1(n2cnc3c(N4CCCCCC4)ncnc32)CSCC1O (single isomer, unassigned) [19b] |  |  | 3.05 ± 0.67 | 46.1 ± 2.46
